Results as given in patent US10844077B2, “Thiazolyl-containing compounds for treating proliferative diseases” (Dana-Farber Cancer Institute, Inc., priority 2014, dated 2020).
Where “and” joins values, the source holds several entries; their conditions need not be identical. Equal values may be shown once.

What was measured:
Experiment in all cases: KINATIV assay of compounds I-3 and I-9, lysate directly labeled with ATP-biotin probe (no GF)
Type in all cases: cell-based
[1] = molecular target: kinases in BCWM.1 cells (Homo sapiens, UniProt Q13315); conditions: ATM; ATP; 1 μM; no GF
Method: (§1) The cells were harvested and lysed. […] Bound kinases were identified and quantitated by ACTIVX as described in Patricelli et al., Biochemistry, 2007, 46(2): 350-358. The compounds were tested in duplicates against duplicate or quadruplicate control samples.

[2] = molecular target: kinases in BCWM.1 cells (Homo sapiens, UniProt Q04759); conditions: PKCt; ATP Loop; 1 μM, 90 min; no GF
Method: as §1

[3] = molecular target: kinases in BCWM.1 cells (Homo sapiens, UniProt Q16566); conditions: CaMK4; Lys2; 1 μM; no GF
Method: as §1

[4] = molecular target: kinases in BCWM.1 cells (Homo sapiens, UniProt Q9Y616); conditions: IRAK3; Lys1; 1 μM; no GF
Method: as §1

[5] = molecular target: kinases in BCWM.1 cells (Homo sapiens, UniProt P24941); conditions: CDK2; Lys2; 1 μM; no GF
Method: as §1

[6] = molecular target: kinases in BCWM.1 cells (Homo sapiens, UniProt P50613); conditions: CDK7; Lys2; 1 μM; no GF
Chain of kinases in BCWM.1 cells (Homo sapiens, UniProt P50613) (P50613 2-346 limits assumed): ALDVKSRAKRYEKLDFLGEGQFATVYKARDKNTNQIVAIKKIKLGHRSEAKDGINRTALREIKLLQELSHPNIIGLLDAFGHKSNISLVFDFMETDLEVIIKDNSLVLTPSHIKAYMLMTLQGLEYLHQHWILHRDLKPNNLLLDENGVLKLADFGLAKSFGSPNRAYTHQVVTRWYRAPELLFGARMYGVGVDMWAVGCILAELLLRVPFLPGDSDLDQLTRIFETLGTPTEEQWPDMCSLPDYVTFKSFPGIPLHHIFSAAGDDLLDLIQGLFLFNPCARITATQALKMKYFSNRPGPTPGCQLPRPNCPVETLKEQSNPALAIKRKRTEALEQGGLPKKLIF
Method: as §1

[7] = molecular target: kinases in BCWM.1 cells (Homo sapiens, UniProt P11802); conditions: CDK4; Lys2; 1 μM; no GF
Chain of kinases in BCWM.1 cells (Homo sapiens, UniProt P11802) (P11802 2-303 limits assumed): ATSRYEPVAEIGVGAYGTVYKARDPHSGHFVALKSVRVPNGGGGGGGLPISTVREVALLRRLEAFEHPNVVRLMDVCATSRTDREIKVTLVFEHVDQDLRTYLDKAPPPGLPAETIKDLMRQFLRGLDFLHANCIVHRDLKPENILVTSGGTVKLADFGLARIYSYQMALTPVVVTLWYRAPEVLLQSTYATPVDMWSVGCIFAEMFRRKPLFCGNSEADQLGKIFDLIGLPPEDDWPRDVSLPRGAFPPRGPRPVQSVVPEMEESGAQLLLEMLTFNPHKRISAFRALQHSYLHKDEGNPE
Method: as §1

[8] = molecular target: kinases in BCWM.1 cells (Homo sapiens, UniProt P29323); conditions: EphB2; Activation Loop; 1 μM; no GF
Chain of kinases in BCWM.1 cells (Homo sapiens, UniProt P29323) (P29323 19-1055 limits assumed): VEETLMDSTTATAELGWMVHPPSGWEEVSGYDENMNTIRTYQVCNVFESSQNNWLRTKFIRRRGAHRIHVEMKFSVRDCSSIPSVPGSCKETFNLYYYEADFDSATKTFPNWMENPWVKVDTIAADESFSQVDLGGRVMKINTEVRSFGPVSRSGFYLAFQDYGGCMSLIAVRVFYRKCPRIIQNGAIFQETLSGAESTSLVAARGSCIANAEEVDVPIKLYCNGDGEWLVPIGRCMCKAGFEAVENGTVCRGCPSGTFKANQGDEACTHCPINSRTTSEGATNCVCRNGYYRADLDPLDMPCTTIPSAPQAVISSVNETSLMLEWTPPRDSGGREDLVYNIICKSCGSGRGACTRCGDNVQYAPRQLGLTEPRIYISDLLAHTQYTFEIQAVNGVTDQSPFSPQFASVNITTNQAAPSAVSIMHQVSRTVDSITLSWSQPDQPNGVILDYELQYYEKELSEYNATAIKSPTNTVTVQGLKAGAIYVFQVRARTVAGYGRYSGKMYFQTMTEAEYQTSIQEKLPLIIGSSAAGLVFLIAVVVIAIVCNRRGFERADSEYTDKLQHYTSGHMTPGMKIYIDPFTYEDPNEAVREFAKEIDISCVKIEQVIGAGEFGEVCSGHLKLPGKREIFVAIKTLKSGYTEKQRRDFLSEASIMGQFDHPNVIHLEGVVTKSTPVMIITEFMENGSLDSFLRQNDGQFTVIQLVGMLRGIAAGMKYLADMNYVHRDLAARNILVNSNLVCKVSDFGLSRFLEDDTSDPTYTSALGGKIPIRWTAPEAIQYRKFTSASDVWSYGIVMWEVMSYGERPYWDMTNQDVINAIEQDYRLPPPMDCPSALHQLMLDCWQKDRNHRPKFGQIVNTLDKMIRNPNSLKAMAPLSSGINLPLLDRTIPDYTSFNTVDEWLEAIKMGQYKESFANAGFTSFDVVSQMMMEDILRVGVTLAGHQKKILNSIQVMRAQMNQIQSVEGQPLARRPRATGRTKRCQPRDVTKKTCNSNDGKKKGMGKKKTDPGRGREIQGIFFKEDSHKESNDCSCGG
Method: as §1

[9] = molecular target: kinases in BCWM.1 cells (Homo sapiens, UniProt P46734); conditions: MAP2K3; Lys2; 1 μM; no GF
Method: as §1

[10] = molecular target: kinases in BCWM.1 cells (Homo sapiens, UniProt Q5TCX8); conditions: MLK4; Lys2; 1 μM; no GF
Method: as §1

[11] = molecular target: kinases in BCWM.1 cells (Homo sapiens, UniProt P07948); conditions: LYN; Lys1; 1 μM; no GF
Method: as §1

[12] = molecular target: kinases in BCWM.1 cells (Homo sapiens, UniProt P41240); conditions: CSK; Activation Loop; 1 μM; no GF
Chain of kinases in BCWM.1 cells (Homo sapiens, UniProt P41240) (P41240 2-450 limits assumed): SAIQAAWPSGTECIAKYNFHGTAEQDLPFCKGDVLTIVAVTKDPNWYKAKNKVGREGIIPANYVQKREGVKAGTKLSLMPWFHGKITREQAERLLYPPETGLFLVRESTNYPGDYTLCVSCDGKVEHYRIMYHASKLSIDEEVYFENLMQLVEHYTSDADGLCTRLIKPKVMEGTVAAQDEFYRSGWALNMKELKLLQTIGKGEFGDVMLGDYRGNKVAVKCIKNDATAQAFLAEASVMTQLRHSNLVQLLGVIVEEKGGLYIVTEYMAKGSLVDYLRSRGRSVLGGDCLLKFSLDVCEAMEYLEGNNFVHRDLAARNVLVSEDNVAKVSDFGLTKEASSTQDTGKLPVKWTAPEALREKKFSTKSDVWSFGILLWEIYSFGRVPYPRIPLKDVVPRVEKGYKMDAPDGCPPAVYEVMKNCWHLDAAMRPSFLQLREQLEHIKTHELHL
Method: as §1

[13] = molecular target: kinases in BCWM.1 cells (Homo sapiens, UniProt Q99755); conditions: PIP5K1A; ATP; 1 μM, 90 min; no GF
Method: as §1

[14] = molecular target: kinases in BCWM.1 cells (Homo sapiens, UniProt Q8IU85); conditions: CaMKld; Lys1; 1 μM; no GF
Method: as §1

[15] = molecular target: kinases in BCWM.1 cells (Homo sapiens, UniProt P28482); conditions: Erk2; Lys2; 1 μM; no GF
Chain of kinases in BCWM.1 cells (Homo sapiens, UniProt P28482) (P28482 2-360 limits assumed): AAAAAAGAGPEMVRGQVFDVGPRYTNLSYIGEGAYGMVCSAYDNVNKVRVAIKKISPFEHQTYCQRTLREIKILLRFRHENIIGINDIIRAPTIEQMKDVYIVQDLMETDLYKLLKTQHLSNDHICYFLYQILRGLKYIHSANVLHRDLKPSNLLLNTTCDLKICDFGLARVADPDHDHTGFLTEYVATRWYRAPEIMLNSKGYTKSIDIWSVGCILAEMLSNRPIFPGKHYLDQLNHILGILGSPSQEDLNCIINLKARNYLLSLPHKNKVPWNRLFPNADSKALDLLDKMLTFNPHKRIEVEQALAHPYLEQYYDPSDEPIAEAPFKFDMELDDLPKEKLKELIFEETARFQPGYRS
Method: as §1

[16] = molecular target: kinases in BCWM.1 cells (Homo sapiens, UniProt P27361); conditions: Erk1; Lys2; 1 μM; no GF
Chain of kinases in BCWM.1 cells (Homo sapiens, UniProt P27361) (P27361 2-379 limits assumed): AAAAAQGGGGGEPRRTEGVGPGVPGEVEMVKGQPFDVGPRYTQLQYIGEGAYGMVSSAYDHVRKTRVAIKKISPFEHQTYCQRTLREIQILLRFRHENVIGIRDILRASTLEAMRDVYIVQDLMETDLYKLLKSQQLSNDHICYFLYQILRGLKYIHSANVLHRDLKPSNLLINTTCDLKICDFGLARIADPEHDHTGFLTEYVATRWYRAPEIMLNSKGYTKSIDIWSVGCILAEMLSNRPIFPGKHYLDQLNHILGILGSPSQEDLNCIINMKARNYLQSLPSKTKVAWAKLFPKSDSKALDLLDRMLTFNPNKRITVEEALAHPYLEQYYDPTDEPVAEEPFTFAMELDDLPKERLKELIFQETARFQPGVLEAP
Method: as §1

[17] = molecular target: kinases in BCWM.1 cells (Homo sapiens, UniProt Q96RR4); conditions: CaMKK2; Lys2; 1 μM; no GF
Chain of kinases in BCWM.1 cells (Homo sapiens, UniProt Q96RR4) (Q96RR4 2-588 limits assumed): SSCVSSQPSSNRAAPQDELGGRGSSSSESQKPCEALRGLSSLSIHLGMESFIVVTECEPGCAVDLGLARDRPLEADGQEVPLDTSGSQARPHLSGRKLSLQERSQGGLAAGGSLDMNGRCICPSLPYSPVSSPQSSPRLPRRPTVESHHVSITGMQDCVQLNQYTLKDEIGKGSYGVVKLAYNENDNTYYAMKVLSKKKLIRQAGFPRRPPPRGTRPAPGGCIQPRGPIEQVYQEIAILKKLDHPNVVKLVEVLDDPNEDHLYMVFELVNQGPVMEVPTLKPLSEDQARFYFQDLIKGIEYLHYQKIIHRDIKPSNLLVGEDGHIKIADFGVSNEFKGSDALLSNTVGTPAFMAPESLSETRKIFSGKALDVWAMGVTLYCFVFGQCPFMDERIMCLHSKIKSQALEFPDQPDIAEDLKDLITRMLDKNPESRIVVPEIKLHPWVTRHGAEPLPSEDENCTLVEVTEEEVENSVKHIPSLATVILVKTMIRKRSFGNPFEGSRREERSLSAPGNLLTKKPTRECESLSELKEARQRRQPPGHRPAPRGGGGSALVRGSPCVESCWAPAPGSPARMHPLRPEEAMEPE
Method: as §1

[18] = molecular target: kinases in BCWM.1 cells (Homo sapiens, UniProt P49841); conditions: GSK3B; Lys2; 1 μM; no GF
Method: as §1

[19] = molecular target: kinases in BCWM.1 cells (Homo sapiens, UniProt P52333); conditions: JAK3 domain2; Activation Loop; 1 μM; no GF
Method: as §1

[20] = molecular target: kinases in BCWM.1 cells (Homo sapiens, UniProt P42685); conditions: FRK; Activation Loop; 1 μM; no GF
Method: as §1

[21] = molecular target: kinases in BCWM.1 cells (Homo sapiens, UniProt Q00534); conditions: CDK6; Lys2; 1 μM; no GF
Method: as §1

[22] = molecular target: kinases in BCWM.1 cells (Homo sapiens, UniProt Q06187); conditions: BTK; Activation Loop; 1 μM; no GF
Chain of kinases in BCWM.1 cells (Homo sapiens, UniProt Q06187) (Q06187 2-659 limits assumed): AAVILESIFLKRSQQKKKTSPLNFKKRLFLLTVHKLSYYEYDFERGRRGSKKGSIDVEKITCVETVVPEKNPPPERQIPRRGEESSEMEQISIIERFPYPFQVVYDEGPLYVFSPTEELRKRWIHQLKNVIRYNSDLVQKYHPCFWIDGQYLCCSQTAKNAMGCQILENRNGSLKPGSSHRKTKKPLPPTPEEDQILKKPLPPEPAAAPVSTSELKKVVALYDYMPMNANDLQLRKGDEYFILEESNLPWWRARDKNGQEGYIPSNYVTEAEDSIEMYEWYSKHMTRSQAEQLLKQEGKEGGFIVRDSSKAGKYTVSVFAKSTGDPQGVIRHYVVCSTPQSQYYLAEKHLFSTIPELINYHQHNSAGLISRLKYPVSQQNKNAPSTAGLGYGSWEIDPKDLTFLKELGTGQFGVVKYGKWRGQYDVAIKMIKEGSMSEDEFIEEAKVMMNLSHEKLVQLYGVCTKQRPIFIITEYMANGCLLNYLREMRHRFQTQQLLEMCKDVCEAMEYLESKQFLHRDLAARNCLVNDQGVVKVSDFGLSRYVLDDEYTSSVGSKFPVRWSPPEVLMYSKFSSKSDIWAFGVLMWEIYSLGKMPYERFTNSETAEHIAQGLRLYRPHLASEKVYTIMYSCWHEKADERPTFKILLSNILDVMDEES
Method: as §1

[23] = molecular target: kinases in BCWM.1 cells (Homo sapiens, UniProt P06239); conditions: LCK; Activation Loop; 1 μM; no GF
Chain of kinases in BCWM.1 cells (Homo sapiens, UniProt P06239) (P06239 2-509 limits assumed): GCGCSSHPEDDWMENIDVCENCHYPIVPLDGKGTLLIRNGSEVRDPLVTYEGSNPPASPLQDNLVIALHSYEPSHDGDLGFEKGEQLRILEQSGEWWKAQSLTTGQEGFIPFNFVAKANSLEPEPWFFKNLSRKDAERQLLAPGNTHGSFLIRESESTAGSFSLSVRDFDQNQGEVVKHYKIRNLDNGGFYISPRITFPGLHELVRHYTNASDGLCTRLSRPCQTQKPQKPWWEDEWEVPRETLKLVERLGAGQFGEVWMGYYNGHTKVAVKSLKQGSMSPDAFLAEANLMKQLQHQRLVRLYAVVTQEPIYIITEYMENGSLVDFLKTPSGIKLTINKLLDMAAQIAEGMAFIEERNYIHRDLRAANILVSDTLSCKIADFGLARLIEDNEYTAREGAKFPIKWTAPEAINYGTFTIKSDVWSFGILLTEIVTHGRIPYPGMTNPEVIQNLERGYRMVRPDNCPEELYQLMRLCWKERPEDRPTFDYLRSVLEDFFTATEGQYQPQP
Method: as §1

[24] = molecular target: kinases in BCWM.1 cells (Homo sapiens, UniProt Q8TCG2); conditions: PI4K2B; ATP; 1 μM, 90 min; no GF
Method: as §1

[25] = molecular target: kinases in BCWM.1 cells (Homo sapiens, UniProt P51956); conditions: NEK3; Activation Loop; 1 μM, 90 min; no GF
Method: as §1

[26] = molecular target: kinases in BCWM.1 cells (Homo sapiens, UniProt P41743); conditions: PKCi; Lys1; 1 μM, 90 min; no GF
Method: as §1

[27] = molecular target: kinases in BCWM.1 cells (Homo sapiens, UniProt Q86UX6); conditions: YANK3; Lys2; 1 μM, 90 min; no GF
Method: as §1

[28] = molecular target: kinases in BCWM.1 cells (Homo sapiens, UniProt P78356); conditions: PIP4K2B; ATP; 1 μM, 90 min; no GF
Method: as §1

[29] = molecular target: kinases in BCWM.1 cells (Homo sapiens, UniProt Q9C0K7); conditions: STLK6; Lys1; 1 μM, 90 min; no GF
Method: as §1

With `C=CC(=O)N1CC[C@H](Nc2nccc(Nc3ncc(C(=O)Nc4c(C)cccc4C)s3)n2)C1` [Example I-3] the “% change of MS signal compared to control sample” value (“% change of MS signal” below) [1] was 20.7% and 19.5%, the “% change of MS signal” value [2] was −5.2% and the “% change of MS signal” value [3] was 6.8% and −0.1%. The “% change of MS signal” value [4] was −11.3% and −5.5%, the “% change of MS signal” value [5] was 3.6% and 1.2% and the “% change of MS signal” value [6] was 8.9% and 5.1%. The “% change of MS signal” value [7] was 10.3% and 4.8%, the “% change of MS signal” value [8] was 91% and 91.6% and the “% change of MS signal” value [9] was 15.6% and 5.8%. The “% change of MS signal” value [10] was −3.8% and −11.8%, the “% change of MS signal” value [11] was over 98% and the “% change of MS signal” value [12] was 36% and 60.3%. For the same molecule, the “% change of MS signal” value [13] was 26.2%, the “% change of MS signal” value [14] was −0.4% and −5% and the “% change of MS signal” value [15] was −1.8% and 1.1%. For the same molecule, the “% change of MS signal” value [16] was −0.6% and 1.5%, the “% change of MS signal” value [17] was −2.1% and 1.7% and the “% change of MS signal” value [18] was 9.4% and −0.5%. The “% change of MS signal” value [19] was −1.5% and −0.6%, the “% change of MS signal” value [20] was 92.4% and 95.8% and the “% change of MS signal” value [21] was 12.4% and 3.6%. The “% change of MS signal” value [22] was 94.7% and 95.2% and the “% change of MS signal” value [23] was 92.6% and 92.7%.

`CCC(=O)N1CC[C@H](Nc2nccc(Nc3ncc(C(=O)Nc4c(C)cccc4C)s3)n2)C1` [Example I-9] was tested, and the “% change of MS signal” value [24] was 2.6%, the “% change of MS signal” value [25] was −21.2% and the “% change of MS signal” value [26] was 16.5%. The “% change of MS signal” value [27] was −8.6%, the “% change of MS signal” value [28] was 17.6% and the “% change of MS signal” value [29] was 7.2%.
